In ChEMBL document CHEMBL4000181, “Synthesis and biological screening of novel 2-morpholinoquinoline nucleus clubbed with 1,2,4-oxadiazole motifs” (Eur J Med Chem, 2017):
Converted amounts (≈) assume the structure as drawn.

Columns and labels:
Bacillus subtilis = assay: Antibacterial activity against Bacillus subtilis MTCC 441 after 24 to 48 hrs by broth microdilution method; format: functional
Escherichia coli = assay: Antibacterial activity against Escherichia coli MTCC 443 after 24 to 48 hrs by broth microdilution method; format: functional
[1] = system: Schizosaccharomyces pombe; assay: Toxicity in Schizosaccharomyces pombe Var. Paul Linder 3360 assessed as dead cells at 2.5 to 12.5 ug/ml after 17 hrs by trypan blue dye-based microscopic method
Clostridium tetani = assay: Antibacterial activity against Clostridium tetani MTCC 449 after 24 to 48 hrs by broth microdilution method; format: functional
Vibrio cholerae = assay: Antibacterial activity against Vibrio cholerae MTCC 3906 after 24 to 48 hrs by broth microdilution method; format: functional
Streptococcus pneumoniae = assay: Antibacterial activity against Streptococcus pneumoniae MTCC 1936 after 24 to 48 hrs by broth microdilution method; format: functional
Salmonella typhi = assay: Antibacterial activity against Salmonella typhi MTCC 98 after 24 to 48 hrs by broth microdilution method; format: functional, Salmonella enterica subsp. enterica serovar Typhi; conditions: Salmonella enterica
Candida albicans = assay: Antifungal activity against Candida albicans MTCC 227 after 24 to 48 hrs by broth microdilution method; format: functional
Aspergillus fumigatus = assay: Antifungal activity against Aspergillus fumigatus MTCC 3008 after 24 to 48 hrs by broth microdilution method; format: functional

| Compound | MIC (Bacillus subtilis) [µM] | MIC (Escherichia coli) [µM] | Activity [1] | MIC (Clostridium tetani) [µM] | MIC (Vibrio cholerae) [µM] | MIC (Streptococcus pneumoniae) [µM] | MIC (Salmonella typhi) [µM] | MIC (Candida albicans) [µM] | MIC (Aspergillus fumigatus) [µM] |
| --- | --- | --- | --- | --- | --- | --- | --- | --- | --- |
| Cc1ccc2nc(N3CCOCC3)c(-c3noc(-c4ccc([N+](=O)[O-])cc4)n3)cc2c1 | 239 (≈ 99.8 µg/mL) | 239 (≈ 99.8 µg/mL) | Toxic | 149 (≈ 62.2 µg/mL) | 239 (≈ 99.8 µg/mL) | 149 (≈ 62.2 µg/mL) | 599 (≈ 250 µg/mL) | 1140 (≈ 476 µg/mL) | 1200 (≈ 500 µg/mL) |
| COc1ccc(-c2nc(-c3cc4cc(C)ccc4nc3N3CCOCC3)no2)cc1 | 621 (≈ 250 µg/mL) | 497 (≈ 200 µg/mL) | – | 621 (≈ 250 µg/mL) | 497 (≈ 200 µg/mL) | 310 (≈ 125 µg/mL) | 248 (≈ 99.8 µg/mL) | 1240 (≈ 500 µg/mL) | 2490 (≈ 1000 µg/mL) |
| Cc1ccc2nc(N3CCOCC3)c(-c3noc(-c4ccc(Cl)cc4)n3)cc2c1 | 153 (≈ 62.3 µg/mL) | 153 (≈ 62.3 µg/mL) | Toxic | 200 (≈ 81.4 µg/mL) | 153 (≈ 62.3 µg/mL) | 246 (≈ 100 µg/mL) | 246 (≈ 100 µg/mL) | 246 (≈ 100 µg/mL) | 246 (≈ 100 µg/mL) |
| CCn1cc(C(=O)O)c(=O)c2cc(F)c(N3CCNCC3)cc21 [NORFLOXACIN] | 154 (≈ 49.2 µg/mL) | 154 (≈ 49.2 µg/mL) | – | 154 (≈ 49.2 µg/mL) | 154 (≈ 49.2 µg/mL) | 154 (≈ 49.2 µg/mL) | 154 (≈ 49.2 µg/mL) | – | – |
| Cc1ccc2nc(N3CCOCC3)c(-c3noc(-c4cccc(C(F)(F)F)c4)n3)cc2c1 | 568 (≈ 250 µg/mL) | 454 (≈ 200 µg/mL) | Non-Toxic | 1140 (≈ 500 µg/mL) | 568 (≈ 250 µg/mL) | 227 (≈ 100 µg/mL) | 568 (≈ 250 µg/mL) | 2270 (≈ 1000 µg/mL) | 1140 (≈ 500 µg/mL) |
| NYSTATIN | – | – | – | – | – | – | – | 107 | 107 |
| FC(F)(F)c1ccc(-c2nc(-c3cc4ccccc4nc3N3CCOCC3)no2)cc1 | 146 (≈ 62.3 µg/mL) | 586 (≈ 250 µg/mL) | – | 146 (≈ 62.3 µg/mL) | 586 (≈ 250 µg/mL) | 146 (≈ 62.3 µg/mL) | 146 (≈ 62.3 µg/mL) | 2350 (≈ 1000 µg/mL) | 146 (≈ 62.3 µg/mL) |
| Brc1ccc(-c2nc(-c3cc4ccccc4nc3N3CCOCC3)no2)cc1 | 457 (≈ 200 µg/mL) | 572 (≈ 250 µg/mL) | Non-Toxic | 572 (≈ 250 µg/mL) | 228 (≈ 99.7 µg/mL) | 286 (≈ 125 µg/mL) | 228 (≈ 99.7 µg/mL) | 1120 (≈ 488 µg/mL) | 2290 (≈ 1000 µg/mL) |
| CC1(C)S[C@@H]2[C@H](NC(=O)[C@H](N)c3ccccc3)C(=O)N2[C@H]1C(=O)O [AMPICILLIN] | 715 (≈ 250 µg/mL) | 286 (≈ 99.9 µg/mL) | – | 715 (≈ 250 µg/mL) | 286 (≈ 99.9 µg/mL) | 286 (≈ 99.9 µg/mL) | 286 (≈ 99.9 µg/mL) | – | – |
| O=C(N[C@H](CO)[C@H](O)c1ccc([N+](=O)[O-])cc1)C(Cl)Cl [CHLORAMPHENICOL] | 150 (≈ 48.5 µg/mL) | 75 (≈ 24.2 µg/mL) | – | 301 (≈ 97.3 µg/mL) | 75 (≈ 24.2 µg/mL) | 150 (≈ 48.5 µg/mL) | 75 (≈ 24.2 µg/mL) | – | – |
| Cc1ccc2nc(N3CCOCC3)c(-c3noc(-c4ccccc4)n3)cc2c1 | 1340 (≈ 501 µg/mL) | 672 (≈ 250 µg/mL) | – | 268 (≈ 99.8 µg/mL) | 268 (≈ 99.8 µg/mL) | 672 (≈ 250 µg/mL) | 1340 (≈ 501 µg/mL) | 2690 (≈ 1000 µg/mL) | 1340 (≈ 501 µg/mL) |
| Cc1ccc2nc(N3CCOCC3)c(-c3noc(-c4ccc(C(F)(F)F)cc4)n3)cc2c1 | 454 (≈ 200 µg/mL) | 227 (≈ 100 µg/mL) | Non-Toxic | 568 (≈ 250 µg/mL) | 227 (≈ 100 µg/mL) | 454 (≈ 200 µg/mL) | 454 (≈ 200 µg/mL) | 568 (≈ 250 µg/mL) | 1140 (≈ 500 µg/mL) |
| FC(F)(F)c1cccc(-c2nc(-c3cc4ccccc4nc3N3CCOCC3)no2)c1 | 234 (≈ 99.8 µg/mL) | 234 (≈ 99.8 µg/mL) | – | 469 (≈ 200 µg/mL) | 234 (≈ 99.8 µg/mL) | 234 (≈ 99.8 µg/mL) | 146 (≈ 62.3 µg/mL) | 1130 (≈ 482 µg/mL) | 234 (≈ 99.8 µg/mL) |
| O=[N+]([O-])c1ccc(-c2nc(-c3cc4ccccc4nc3N3CCOCC3)no2)cc1 | 155 (≈ 62.5 µg/mL) | 620 (≈ 250 µg/mL) | Toxic | 155 (≈ 62.5 µg/mL) | 620 (≈ 250 µg/mL) | 248 (≈ 100 µg/mL) | 155 (≈ 62.5 µg/mL) | 1130 (≈ 456 µg/mL) | 248 (≈ 100 µg/mL) |
| Clc1ccc(-c2nc(-c3cc4ccccc4nc3N3CCOCC3)no2)cc1 | 255 (≈ 100 µg/mL) | 510 (≈ 200 µg/mL) | Toxic | 159 (≈ 62.5 µg/mL) | 255 (≈ 100 µg/mL) | 159 (≈ 62.5 µg/mL) | 255 (≈ 100 µg/mL) | 637 (≈ 250 µg/mL) | 255 (≈ 100 µg/mL) |
| Cc1ccc2nc(N3CCOCC3)c(-c3noc(-c4ccc(Br)cc4)n3)cc2c1 | 1110 (≈ 500 µg/mL) | 138 (≈ 62.3 µg/mL) | – | 221 (≈ 99.7 µg/mL) | 554 (≈ 250 µg/mL) | 221 (≈ 99.7 µg/mL) | 443 (≈ 200 µg/mL) | 2340 (≈ 1060 µg/mL) | 1110 (≈ 500 µg/mL) |
| COC1=CC(=O)C[C@@H](C)[C@]12Oc1c(Cl)c(OC)cc(OC)c1C2=O [GRISEOFULVIN] | – | – | – | – | – | – | – | 1150 (≈ 405 µg/mL) | 283 (≈ 99.8 µg/mL) |
| c1ccc(-c2nc(-c3cc4ccccc4nc3N3CCOCC3)no2)cc1 | 1400 (≈ 500 µg/mL) | 279 (≈ 100 µg/mL) | – | 1400 (≈ 500 µg/mL) | 1400 (≈ 500 µg/mL) | 698 (≈ 250 µg/mL) | 1400 (≈ 500 µg/mL) | 2790 (≈ 1000 µg/mL) | 1400 (≈ 500 µg/mL) |
| COc1ccc(-c2nc(-c3cc4ccccc4nc3N3CCOCC3)no2)cc1 | 257 (≈ 99.8 µg/mL) | 257 (≈ 99.8 µg/mL) | Non-Toxic | 1290 (≈ 500 µg/mL) | 644 (≈ 250 µg/mL) | 1290 (≈ 500 µg/mL) | 515 (≈ 200 µg/mL) | 2580 (≈ 1000 µg/mL) | 2580 (≈ 1000 µg/mL) |
| O=C(O)c1cn(C2CC2)c2cc(N3CCNCC3)c(F)cc2c1=O [CIPROFLOXACIN] | 310 (≈ 103 µg/mL) | 31 (≈ 10.3 µg/mL) | – | – | 31 (≈ 10.3 µg/mL) | 31 (≈ 10.3 µg/mL) | 31 (≈ 10.3 µg/mL) | – | – |
